In PubChem BioAssay (NCI):
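Test compounds were applied to cells in 96-well plates for 48 hours at 5 doses. GI50 = concentration required for 50% inhibition of growth. TGI marks complete inhibition of growth.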

What was measured:
Test in all cases: growth of human tumour cells (NCI), 48 h
HL-60(TB) leukemia = system: HL-60(TB) leukemia
NCI/ADR-RES ovarian = system: NCI/ADR-RES ovarian
SNB-75 CNS = system: SNB-75 CNS
RXF 393 renal = system: RXF 393 renal
K-562 leukemia = system: K-562 leukemia
SK-OV-3 ovarian = system: SK-OV-3 ovarian
A498 renal = system: A498 renal
ACHN renal = system: ACHN renal
DU-145 prostate = system: DU-145 prostate
MDA-MB-435 = system: MDA-MB-435
NCI-H23 lung = system: NCI-H23 lung
SN12C renal = system: SN12C renal
SF-539 CNS = system: SF-539 CNS
NCI-H226 lung = system: NCI-H226 lung
OVCAR-5 ovarian = system: OVCAR-5 ovarian
SF-295 CNS = system: SF-295 CNS
SK-MEL-5 melanoma = system: SK-MEL-5 melanoma
HT29 colon = system: HT29 colon
HOP-62 NSCLC = system: HOP-62 NSCLC
KM12 colon = system: KM12 colon
PC-3 prostate = system: PC-3 prostate
OVCAR-4 ovarian = system: OVCAR-4 ovarian
U251 CNS = system: U251 CNS
UACC-62 melanoma = system: UACC-62 melanoma
IGROV1 ovarian = system: IGROV1 ovarian
A549 NSCLC = system: A549 NSCLC
CAKI-1 renal = system: CAKI-1 renal
LOX IMVI melanoma = system: LOX IMVI melanoma
BT-549 breast = system: BT-549 breast
UACC-257 melanoma = system: UACC-257 melanoma
OVCAR-8 ovarian = system: OVCAR-8 ovarian
HOP-92 NSCLC = system: HOP-92 NSCLC
HCC-2998 colon = system: HCC-2998 colon
UO-31 renal = system: UO-31 renal
NCI-H522 lung = system: NCI-H522 lung
SNB-19 CNS = system: SNB-19 CNS
SF-268 CNS = system: SF-268 CNS
SK-MEL-28 melanoma = system: SK-MEL-28 melanoma
COLO 205 colon = system: COLO 205 colon
786-0 renal = system: 786-0 renal
HS 578T breast = system: HS 578T breast
T-47D breast = system: T-47D breast
SR leukemia = system: SR leukemia
TK-10 renal = system: TK-10 renal
MALME-3M melanoma = system: MALME-3M melanoma
M14 melanoma = system: M14 melanoma
SK-MEL-2 melanoma = system: SK-MEL-2 melanoma
HCT-15 colon = system: HCT-15 colon
MCF7 breast = system: MCF7 breast
MDA-MB-231 breast = system: MDA-MB-231 breast
SW-620 colon = system: SW-620 colon
NCI-H460 lung = system: NCI-H460 lung
HCT-116 colon = system: HCT-116 colon
EKVX NSCLC = system: EKVX NSCLC

**Q.** For `NC(N)=Nc1ccc(Oc2cccc(Nc3ccc(Cl)c(C(F)(F)F)c3)c2)cn1`, which GI50 (HL-60(TB) leukemia) is on record?
**A.** 1890 nM

**Q.** And the TGI (HL-60(TB) leukemia)?
**A.** 4520 nM

**Q.** And the GI50 (NCI/ADR-RES ovarian)?
**A.** 3740 nM

**Q.** And the TGI (NCI/ADR-RES ovarian)?
**A.** 30500 nM

**Q.** And the GI50 (SNB-75 CNS)?
**A.** 1420 nM

**Q.** What about the TGI (SNB-75 CNS) of the same molecule?
**A.** 2770 nM

**Q.** And the GI50 (RXF 393 renal)?
**A.** 1780 nM

**Q.** What about the TGI (RXF 393 renal) of the same molecule?
**A.** 3580 nM

**Q.** And the GI50 (K-562 leukemia)?
**A.** 1910 nM

**Q.** What about the TGI (K-562 leukemia) of the same molecule?
**A.** > 100000 nM

**Q.** And the GI50 (SK-OV-3 ovarian)?
**A.** 1890 nM

**Q.** What about the TGI (SK-OV-3 ovarian) of the same molecule?
**A.** 3430 nM

**Q.** What about the GI50 (A498 renal) of the same molecule?
**A.** 1230 nM

**Q.** What about the TGI (A498 renal) of the same molecule?
**A.** 2670 nM

**Q.** What about the GI50 (ACHN renal) of the same molecule?
**A.** 1740 nM

**Q.** And the TGI (ACHN renal)?
**A.** 3210 nM

**Q.** What does the source list for `COc1cc2c(cc1OC)C(Sc1ccc(C)cc1)c1c(nc(N)c(C#N)c1N)O2` (centres undefined)?
**A.** GI50 (DU-145 prostate): 1680 nM; TGI (DU-145 prostate): 3050 nM; GI50 (MDA-MB-435): 1580 nM; TGI (MDA-MB-435): 3010 nM; GI50 (HL-60(TB) leukemia): 431 nM; TGI (HL-60(TB) leukemia): 4050 nM; GI50 (NCI-H23 lung): 1590 nM; TGI (NCI-H23 lung): 3100 nM; GI50 (SN12C renal): 1490 nM; TGI (SN12C renal): 2860 nM; GI50 (SF-539 CNS): 1570 nM; TGI (SF-539 CNS): 2930 nM; GI50 (NCI-H226 lung): 1900 nM; TGI (NCI-H226 lung): 3990 nM; GI50 (OVCAR-5 ovarian): 1810 nM; TGI (OVCAR-5 ovarian): 3310 nM; GI50 (SF-295 CNS): 1600 nM; TGI (SF-295 CNS): 3050 nM; GI50 (SK-MEL-5 melanoma): 1780 nM; TGI (SK-MEL-5 melanoma): 3220 nM; GI50 (HT29 colon): 1770 nM; TGI (HT29 colon): 3430 nM; GI50 (HOP-62 NSCLC): 1800 nM; TGI (HOP-62 NSCLC): 3240 nM; GI50 (NCI/ADR-RES ovarian): 1670 nM; TGI (NCI/ADR-RES ovarian): 3370 nM; GI50 (KM12 colon): 1630 nM; TGI (KM12 colon): 3010 nM; GI50 (PC-3 prostate): 1510 nM; TGI (PC-3 prostate): 2930 nM; GI50 (OVCAR-4 ovarian): 1660 nM; TGI (OVCAR-4 ovarian): 3070 nM; GI50 (U251 CNS): 1360 nM; TGI (U251 CNS): 2750 nM; GI50 (UACC-62 melanoma): 1740 nM; TGI (UACC-62 melanoma): 3220 nM; GI50 (IGROV1 ovarian): 715 nM; TGI (IGROV1 ovarian): 2040 nM; GI50 (SNB-75 CNS): 1220 nM; TGI (SNB-75 CNS): 2470 nM; GI50 (A549 NSCLC): 1730 nM; TGI (A549 NSCLC): 3270 nM; GI50 (CAKI-1 renal): 1050 nM; TGI (CAKI-1 renal): 2250 nM; GI50 (LOX IMVI melanoma): 1050 nM; TGI (LOX IMVI melanoma): 2420 nM; GI50 (RXF 393 renal): 1150 nM; TGI (RXF 393 renal): 2420 nM; GI50 (BT-549 breast): 1220 nM; TGI (BT-549 breast): 2490 nM; GI50 (K-562 leukemia): 558 nM; TGI (K-562 leukemia): > 100000 nM; GI50 (UACC-257 melanoma): 1630 nM; TGI (UACC-257 melanoma): 3070 nM; GI50 (OVCAR-8 ovarian): 1550 nM; TGI (OVCAR-8 ovarian): 2910 nM; GI50 (SK-OV-3 ovarian): 1910 nM; TGI (SK-OV-3 ovarian): 3350 nM; GI50 (HOP-92 NSCLC): 1510 nM; TGI (HOP-92 NSCLC): 2930 nM; GI50 (A498 renal): 1380 nM; TGI (A498 renal): 2670 nM; GI50 (HCC-2998 colon): 1580 nM; TGI (HCC-2998 colon): 3120 nM; GI50 (UO-31 renal): 1070 nM; TGI (UO-31 renal): 2250 nM; GI50 (NCI-H522 lung): 1620 nM; TGI (NCI-H522 lung): 3070 nM; GI50 (SNB-19 CNS): 1460 nM; TGI (SNB-19 CNS): 2840 nM; GI50 (SF-268 CNS): 1560 nM; TGI (SF-268 CNS): 3080 nM; GI50 (SK-MEL-28 melanoma): 1670 nM; TGI (SK-MEL-28 melanoma): 3060 nM; GI50 (COLO 205 colon): 1490 nM; TGI (COLO 205 colon): 2870 nM; GI50 (786-0 renal): 1420 nM; TGI (786-0 renal): 2790 nM; GI50 (HS 578T breast): 1970 nM; TGI (HS 578T breast): 4870 nM; GI50 (T-47D breast): 1220 nM; TGI (T-47D breast): 3560 nM; GI50 (ACHN renal): 1510 nM; TGI (ACHN renal): 2860 nM; GI50 (SR leukemia): 291 nM; TGI (SR leukemia): > 100000 nM; GI50 (TK-10 renal): 1200 nM; TGI (TK-10 renal): 2470 nM; GI50 (MALME-3M melanoma): 1740 nM; TGI (MALME-3M melanoma): 3240 nM; GI50 (M14 melanoma): 1770 nM; TGI (M14 melanoma): 3290 nM; GI50 (SK-MEL-2 melanoma): 1590 nM; TGI (SK-MEL-2 melanoma): 2990 nM; GI50 (HCT-15 colon): 1000 nM; TGI (HCT-15 colon): 2430 nM; GI50 (MCF7 breast): 742 nM; TGI (MCF7 breast): 2270 nM; GI50 (MDA-MB-231 breast): 1650 nM; TGI (MDA-MB-231 breast): 3130 nM; GI50 (SW-620 colon): 1240 nM; TGI (SW-620 colon): 2740 nM; GI50 (NCI-H460 lung): 1760 nM; TGI (NCI-H460 lung): 3360 nM; GI50 (HCT-116 colon): 1510 nM; TGI (HCT-116 colon): 3030 nM; GI50 (EKVX NSCLC): 1690 nM; TGI (EKVX NSCLC): 3130 nM
